In US20220257595A1, “MACITENTAN FOR USE IN TREATING PORTOPULMONARY HYPERTENSION” (ACTELION PHARMACEUTICALS LTD, priority 2019, published 2022):

Test system: patients with PoPH
Assay: PORTICO safety: treatment-emergent AEs, SAEs, AESIs, deaths, discontinuations
Assay type: in vivo
Source text: For the evaluation of treatment-emergent safety endpoints in the DB phase, the observation period for each individual subject started at the time of the first administration of macitentan or placebo and ended with the start of OL treatment or 30 days after DB treatment discontinuation (whichever occurred first). The safety variables listed below apply to the DB treatment-emergent period and the macitentan treatment-emergent period. The DB treatment-emergent period was defined as the period from the DB treatment start date up to the EOT-DB+30 days or to the EOT-DB for patients entering OL. The macitentan treatment-emergent period was defined as the period from the first intake of macitentan up to end of macitentan treatment (EOMT)+30 days. EOMT was defined as EOT-DB (for patient who received macitentan only in the DB period) or EOT-OL when applicable. For patients entering OLE, the EOMT is EOT-OL. • Treatment-emergent AEs • Treatment-emergent deaths • Treatment-emergent serious adverse events (SAEs) • AEs leading to premature discontinuation of study treatment • Occurrence of post-baseline LFT (ALT and/or AST) abnormalities, classified as: • ≥3×ULN; • ≥5×ULN; • ≥8×ULN; • ≥3×ULN and <5×ULN; • […] and <8×ULN. • Occurrence of post-baseline ALT and/or AST abnormality 3×ULN and concomitant (i.e., at the same time) total bilirubin ≥2×ULN • Occurrence of post-baseline ALT and/or AST abnormality ≥3×ULN and concomitant (i.e., at the same time) total bilirubin ≥2×ULN and increased as compared to baseline • Occurrence of hemoglobin abnormalities, classified as: • ≤80 g/L, • >80 and ≤100 g/L, • decrease from baseline ≥20 g/L and <50 g/L, • decrease from baseline ≥50 g/L, • <100 g/L and concurrent (i.e., at the same time) decrease from baseline ≥20 g/L. • Other treatment-emergent marked laboratory abnormalities • Change from baseline/macitentan baseline to EOT-DB/EOMT in vital signs • Change from baseline/macitentan baseline to EOT-DB/EOMT in laboratory variables • Change from baseline/macitentan baseline to EOT-DB/EOMT in Child-Pugh classification • Change from baseline/macitentan baseline to EOT-DB/EOMT in MELD score
(i) Adverse events: All AEs occurring after study start (i.e., signing of informed consent) and up to 30 days after study treatment discontinuation were required to be recorded. AEs still ongoing more than 30 days after study treatment discontinuation were required to be followed up until they were no longer considered clinically relevant.
(ii) Serious adverse events, including associated with study design or protocol-mandated procedures: During the screening period, all SAEs occurring after study start (i.e., signing of informed consent) were required to be recorded (whether considered associated or not associated to study design or study-mandated procedures). All SAEs, regardless of investigator-attributed causal relationship, occurring during the treatment period up to the end of the 30-day follow up period, were required to be reported. SAEs still ongoing at the EOS visit were required to be followed up until resolution or stabilization, or until the event outcome was provided, e.g., death. New SAEs occurring after the 30-day follow-up period were required to be reported within 24 hours.
In addition, the following adverse events of special interest (AESIs) were analyzed: • “Edema and fluid retention”
Any treatment-emergent AE with PT listed in the Standardised MedDRA Query (SMQ) “Haemodynamic oedema, effusions and fluid overload (SMQ)” or with PT equal to “Pulmonary congestion” defined in the latest available MedDRA version, with the exception of PTs containing “site”. • “Anemia”

[1] = DB phase, Safety set, 10 mg, N = 43
[2] = DB phase, macitentan group (6 patients)
[3] = DB phase, macitentan group, 7 patients
[4] = OL phase, Macitentan treated set, N = 84
[5] = macitentan DB + OL phase, Macitentan treated set, N = 84

CCCNS(=O)(=O)Nc1ncnc(OCCOc2ncc(Br)cn2)c1-c1ccc(Br)cc1 [macitentan, N-[5-(4-Bromophenyl)-6-[2-[(5-bromo-2-pyrimidinyl)oxy]ethoxy]-4-pyrimidinyl]-N′-propylsulfamide]
AEs that occurred more frequently than in the placebo group (DB phase): peripheral edema/peripheral swelling, bronchitis and decreased hemoglobin/anemia | Deaths (DB phase): no deaths | AE leading to premature discontinuation of study treatment, Alveolitis [1]: 1 (2.3) n (%) | AE leading to premature discontinuation of study treatment, Anaemia [1]: 1 (2.3) n (%) | AE leading to premature discontinuation of study treatment, Hypersensitivity [1]: 1 (2.3) n (%) | AE leading to premature discontinuation of study treatment, Pulmonary arterial hypertension [1]: 1 (2.3) n (%) | AE of special interest Anemia, Pancytopenia [1]: 0 n (%) | AE of special interest Hepatic disorders, Blood bilirubin increased [1]: 0 n (%) | AE of special interest Hepatic disorders, Gamma-glutamyltransferase increased [1]: 0 n (%) | Subjects with at least one AE [1]: 36 (83.7) n (%) | Subjects with at least one AE leading to study drug discontinuation [1]: 4 (9.3) n (%) | Subjects with at least one Drug-Related AE [1]: 19 (44.2) n (%) | Subjects with at least one Drug-Related serious AE [1]: 5 (11.6) n (%) | Subjects with at least one Fatal serious AE [1]: 0 n (%) | Subjects with at least one Serious AE [1]: 9 (20.9) n (%) | Subjects with at least one Severe AE [1]: 7 (16.3) n (%) | Treatment-emergent AE, Abdominal pain [1]: 2 (4.7) n (%) | Treatment-emergent AE, Acute kidney injury [1]: 2 (4.7) n (%) | Treatment-emergent AE, Back pain [1]: 2 (4.7) n (%) | Treatment-emergent AE, Bronchitis [1]: 4 (9.3) n (%) | Treatment-emergent AE, Cough [1]: 0 n (%) | Treatment-emergent AE, Diarrhoea [1]: 1 (2.3) n (%) | Treatment-emergent AE, Dizziness [1]: 2 (4.7) n (%) | Treatment-emergent AE, Dry mouth [1]: 1 (2.3) n (%) | Treatment-emergent AE, Dyspnoea [1]: 1 (2.3) n (%) | Treatment-emergent AE, Fall [1]: 2 (4.7) n (%) | Treatment-emergent AE, Foot fracture [1]: 1 (2.3) n (%) | Treatment-emergent AE, Headache [1]: 7 (16.3) n (%) | Treatment-emergent AE, Hypokalaemia [1]: 2 (4.7) n (%) | Treatment-emergent AE, Hypotension [1]: 2 (4.7) n (%) | Treatment-emergent AE, Muscle spasms [1]: 0 n (%) | Treatment-emergent AE, Nausea [1]: 1 (2.3) n (%) | Treatment-emergent AE, Pain in extremity [1]: 2 (4.7) n (%) | Treatment-emergent AE, Presyncope [1]: 2 (4.7) n (%) | Treatment-emergent AE, Rhinitis [1]: 2 (4.7) n (%) | Treatment-emergent AE, Right ventricular failure [1]: 3 (7.0) n (%) | Treatment-emergent AE, Tachycardia [1]: 2 (4.7) n (%) | Treatment-emergent AE, Urinary tract infection [1]: 2 (4.7) n (%) | Treatment-emergent AE, Viral upper respiratory tract infection [1]: 2 (4.7) n (%) | Treatment-emergent SAE, Acute kidney injury [1]: 1 (2.3) n (%) | Treatment-emergent SAE, Alveolitis [1]: 1 (2.3) n (%) | Treatment-emergent SAE, Aneurysm repair [1]: 0 n (%) | Treatment-emergent SAE, Ascites [1]: 1 (2.3) n (%) | Treatment-emergent SAE, Asthma [1]: 1 (2.3) n (%) | Treatment-emergent SAE, Atrial fibrillation [1]: 1 (2.3) n (%) | Treatment-emergent SAE, Fluid overload [1]: 1 (2.3) n (%) | Treatment-emergent SAE, Haemoptysis [1]: 1 (2.3) n (%) | Treatment-emergent SAE, Hepatic encephalopathy [1]: 1 (2.3) n (%) | Treatment-emergent SAE, Hepatocellular carcinoma [1]: 1 (2.3) n (%) | Treatment-emergent SAE, Hypersensitivity [1]: 1 (2.3) n (%) | Treatment-emergent SAE, Ileus [1]: 1 (2.3) n (%) | Treatment-emergent SAE, Left ventricular failure [1]: 1 (2.3) n (%) | Treatment-emergent SAE, Localised infection [1]: 0 n (%) | Treatment-emergent SAE, Localised oedema [1]: 1 (2.3) n (%) | Treatment-emergent SAE, Lung infection [1]: 1 (2.3) n (%) | Treatment-emergent SAE, Oedema peripheral [1]: 1 (2.3) n (%) | Treatment-emergent SAE, Presyncope [1]: 1 (2.3) n (%) | Treatment-emergent SAE, Pulmonary arterial hypertension [1]: 1 (2.3) n (%) | Treatment-emergent SAE, Pulmonary toxicity [1]: 1 (2.3) n (%) | Treatment-emergent SAE, Right ventricular failure [1]: 2 (4.7) n (%) | Treatment-emergent SAE, Syncope [1]: 1 (2.3) n (%) | Treatment-emergent SAE, Troponin I increased [1]: 1 (2.3) n (%) | Treatment-emergent SAE, Urosepsis [1]: 1 (2.3) n (%) | Treatment-emergent SAE, Vascular procedure complication [1]: 0 n (%) | Anemia AE cases leading to discontinuation of study treatment (DB phase, macitentan group): 1 case | Edema/fluid retention SAEs (in one patient: peripheral edema, localized edema, fluid overload) (DB phase, macitentan group): 3 SAEs | Patients who discontinued treatment due to AEs (DB phase, macitentan group): 4 patients | Patients who had SAEs (DB phase, macitentan group): 20.9% | Patients with hepatic disorder SAEs (DB phase, macitentan group): 3 patients | Patients with anemia AEs [2]: 14.0% | Patients with hepatic disorder AEs [2]: 14.0% | Patients with edema and fluid retention AEs (DB phase, macitentan group (13 patients)): 30.2% | Peripheral edema considered related to study treatment (DB phase, macitentan group, 4 patients): 9.3% | Headache considered related to study treatment [3]: 16.3% | Patients with severe AEs [3]: 16.3% | Deaths considered related to macitentan treatment by the investigator (OL and OLE): None of the deaths were considered by the investigator to be related | Patients who died (OL phase): 4 patients | Reason for death, Hepatocellular Carcinoma [4]: 1 (1.2) n (%) | Reason for death, Pneumonia [4]: 1 (1.2) n (%) | Reason for death, Pulmonary Arterial Hypertension [4]: 1 (1.2) n (%) | Reason for death, Subdural Haematoma [4]: 1 (1.2) n (%) | Total deaths [4]: 4 (4.8) n (%) | Macitentan-treated patients who died (across OL phase (and after end of its follow-up) and ongoing OLE phase): 7 patients | AE leading to premature discontinuation of study treatment, Alveolitis [5]: 1 (1.2) n(%) | AE leading to premature discontinuation of study treatment, Anaemia [5]: 2 (2.4) n(%) | AE leading to premature discontinuation of study treatment, Ascites [5]: 1 (1.2) n(%) | AE leading to premature discontinuation of study treatment, Diarrhoea [5]: 1 (1.2) n(%) | AE leading to premature discontinuation of study treatment, Hypersensitivity [5]: 1 (1.2) n(%) | AE leading to premature discontinuation of study treatment, Liver function test increased [5]: 1 (1.2) n(%) | AE leading to premature discontinuation of study treatment, Oedema peripheral [5]: 2 (2.4) n(%) | AE leading to premature discontinuation of study treatment, Pneumonia [5]: 1 (1.2) n(%) | AE leading to premature discontinuation of study treatment, Pulmonary arterial hypertension [5]: 1 (1.2) n(%) | AEs leading to premature discontinuation of study treatment, Subjects with at least one AE [5]: 10 (11.9) n(%) | AEs of special interest Anemia, Anaemia postoperative [5]: 1 (1.2) n (%) | AEs of special interest Anemia, Haematocrit decreased [5]: 1 (1.2) n (%) | AEs of special interest Anemia, Subjects with atleast one AE [5]: 22 (26.2) n (%) | AEs of special interest Edema and fluid retention, Fluid overload [5]: 1 (1.2) n (%) | AEs of special interest Edema and fluid retention, Fluid retention [5]: 1 (1.2) n (%) | AEs of special interest Edema and fluid retention, Generalised oedema [5]: 1 (1.2) n (%) | AEs of special interest Edema and fluid retention, Joint swelling [5]: 1 (1.2) n (%) | AEs of special interest Edema and fluid retention, Localised oedema [5]: 1 (1.2) n (%) | AEs of special interest Edema and fluid retention, Peripheral swelling [5]: 2 (2.4) n (%) | AEs of special interest Edema and fluid retention, Subjects with atleast one AE [5]: 26 (31.0) n (%) | AEs of special interest Edema and fluid retention, Swelling [5]: 1 (1.2) n (%) | AEs of special interest Hepatic disorders, Ammonia increased [5]: 2 (2.4) n (%)
